Assay results as given in patent US20080279848A1, “Methods of treating lupus using CD4 antibodies” (GENENTECH, INC., priority 2006, published 2008).

Columns and labels:
[1] = test system: NZBxW F1 mice (spontaneous lupus-like kidney disease); assay: NZBxW F1 preclinical model of SLE, treatment initiated at 9 months of age (severe disease), CD4 antibody and MMF
Description: (§1) Proteinuria was measured using a Clinitek® 50 Urine Chemistry Analyzer (Bayer Corporation, Elkhart, Ind., USA). A drop of freshly collected urine was placed on a reagent strip (Multistix® 10 SG, Bayer), and the strip was immediately inserted into the analyzer after removal of excess urine by blotting with a clean gauze sponge.
Numbers of activated CD4+ T cells found in spleen were determined by flow cytometry as follows. Whole spleens were harvested and crushed into single cell suspensions, which were then red blood cell lysed using EL buffer (erythrocyte lysis buffer, from Qiagen, Valencia, Calif., catalog number 79217), passed through a 70 micron cell strainer, and then resuspended for cell counts. A fixed volume of each cell suspension was mixed with a fluorescent bead (Polysciences, Inc., catalog number 18862) solution of known concentration. The mixture was then run on a FACScan™ flow cytometer from BD Biosciences (Franklin Lakes, N.J.). By collecting a fixed number of beads for each mixture, the total number of live cells could be calculated and subsequently used to determine total numbers of cell subpopulations for the spleen of each mouse after further FACS analysis.
Treatment of NZB×NZW mice was initiated at 9 months of age. Mice were screened for proteinuria and randomized into groups based on their proteinuria scores. […] Mice were monitored for changes in proteinuria (urinalysis was performed as described above in Example 1), disease progression, and survival. […] MMF was given IP at either 25 mg/kg daily or 50 mg/kg daily (alone or in combination with the CD4 antibody).
CD4^+ T cell and B2 B cell numbers were determined by flow cytometry basically as described above, using antibodies to identify the various cell populations and then using the percentage of each population represented (of total lymphocytes) multiplied by the total number of lymphocytes to determine the number of each population. B2 cells (the majority of B cells) were identified by positive staining for B220 (CD45) and CD38. Anti-B220/CD45 and anti-CD38 were from BD Pharmingen.
Comparisons were performed using Dunnett's method with the control antibody treated group as the reference control group (designated in bold), and only p values for groups that achieve statistical significance vs. the reference control are designated on the graph.

[2] = test system: NZBxW F1 mice (spontaneous lupus-like kidney disease); assay: NZBxW F1 preclinical model of SLE, treatment initiated at 8 months of age (moderate-severe disease); assay type: in vivo, mouse; conditions: over time after treatment; CTX 50 mg/kg IP every 10 days; FIG. 7A
Text: The control antibody was an irrelevant mouse IgG1 antibody (a mouse antibody was used for the control since an irrelevant rat antibody would elicit an immune response against itself, influencing the course of disease; the rat anti-CD4 antibody prevents such a response to itself).
At 8 months of age, NZB×NZW mice were screened for proteinuria and randomized into 5 groups based on their proteinuria scores. At this age, disease is considered to be moderate-severe. At the onset of the experiment, each group of 19 mice was composed of the following distribution of protein concentrations in the urine: 32% at >300 mg/dl; 24% at 100-300 mg/dl; and 44% at 30-100 mg/dl. […] Mice were monitored for changes in urine protein concentration (e.g., proteinuria), Blood Urea Nitrogen (BUN), and survival.
as §1
Blood urea nitrogen was measured using a Cobas Integra® 400 chemistry analyzer (Roche Diagnostics, Basel, Switzerland) and urea detection reagent (also supplied by Roche Diagnostics) according to the manufacturer's instructions. […]

[3] = test system: SJL/J mice with PLP-139-151 peptide induced EAE; assay: Relapsing and remitting EAE induced by PLP peptide in SJL/J mice (model of MS); assay type: in vivo, mouse; conditions: treatment initiated at day 14 (peak of disease), CD4 antibody = murinized YTS177; FIG. 12
Text: Experimental autoimmune encephalomyelitis (EAE) is an inflammatory condition of the central nervous system (CNS) with similarities to MS; in both diseases, demyelination results in impaired nerve conduction and paralysis. Relapsing and remitting EAE induced by injection of proteolipid protein (PLP) peptide in SJL/J mice provides a useful preclinical efficacy model of MS (see, e.g., Miller and Karpus (1996) “Experimental Autoimmune Encephalomyelitis in the Mouse” in Current Protocols in Immunology, Coligan et al. (eds.), John Wiley & Sons, Inc. and Sobel et al. (1990) “Acute experimental allergic encephalomyelitis in SJL/J mice induced by a synthetic peptide of myelin proteolipid protein” J Neuropathol Exp Neurol. 49(5):468-79).
FIG. 10 schematically illustrates progression of the disease over time after injection of the PLP peptide in this model. Injection at day 0 is followed by disease onset (days 0-15), remission (days 15-25), and relapse (day 25-termination of the study at days 60-70). […]
Numbers of effector/memory cells in the blood were determined by flow cytometry as follows. […]
To 1×10^6 cells, a saturating amount of fluorophore-conjugated antibodies were added and incubated on ice for 30 minutes, followed by washing with cold buffer. […] Samples were analyzed by flow cytometry on a FACSCalibur from BD Biosciences. […]

COc1c(C)c2c(c(O)c1C/C=C(\C)CCC(=O)OCCN1CCOCC1)C(=O)OC2 [MMF, 2-morpholinoethyl (E)-6-(1,3-dihydro-4-hydroxy-6-methoxy-7-methyl-3-oxo-5-isobenzofuranyl)-4-methyl-4-hexenoate]
blood B2 B cell numbers ([1]; 25 mg/kg MMF, may not be statistically significant, FIG. 20B): increase | proteinuria, multiple comparison analysis (Dunnett's method) vs control antibody ([1]; month 2 of treatment, MMF 50 or 25 mg/kg daily, FIG. 19): did not show statistically significant reduction in proteinuria | capacity to reverse severe proteinuria (mice reversed from 300 mg/dl proteinuria) ([1]; one month of treatment, MMF 25 or 50 mg/kg daily IP, YTS177 5 mg/kg 3x/week, FIG. 17B): not sufficient to reverse severe proteinuria significantly | mice exhibiting >300 mg/dl proteinuria (reversal of nephritis symptoms in very late stage disease) ([1]; over time after treatment, FIG. 17A): not observed

O=P1(N(CCCl)CCCl)NCCCO1 (stereo not drawn) [cyclophosphamide]
mice exhibiting >300 mg/dl proteinuria (reversal of nephritis symptoms in very late stage disease) [2]: not observed

glatiramer acetate
clinical score [3]: ineffective
